The values below come from patent US8916606B2, “Therapeutic compositions and methods for targeted delivery of active agents” (William Marsh Rice University, priority 2009, dated 2014).

Molecules are shown by their SMILES.

A short description of data set [1]: Solubility and loading of PTX. The format is physicochemical. Here is the method: The PEG-HCCs were purified by sequential dialysis in DMF and water. This was followed by passage through a PD-10 desalting column to remove any coordinated metals or unbound PEG. […] The particles were water soluble. See Berlin et al. for AFM data.
PEG-HCCs were loaded with PTX by dropwise addition of PTX in methanol (5 mg in 1 mL) to a rapidly stirring solution of PEG-HCCs in water (100 mg/L concentration of core HCCs, 5 mL). Next, the solution was bath-sonicated, concentrated to 3 mL by rotary evaporation (to remove the methanol), and then diluted back to the original volume (5 mL) with water. This provided a translucent solution of PTX non-covalently associated with PEG-HCCs (PTX/PEG-HCCs). […] In other words, it is visually apparent if PTX is precipitating because the solution becomes a milky white color when the PTX is overloaded. Applicants have observed that the maximum loading concentration of PTX in the PEG-HCCs in the experiments performed to date is about 12 mg/mL.

Another data set relates to bEnd.3 cells. As to the kind of experiment: Antimycin A induced oxidative stress in bEnd.3 cells, DHE flow cytometry (Example 13.1). The data set is classed as cell-based. The conditions noted are these: treatment after Antimycin A. The method, then:
Mean fluorescence intensity (indicative of oxidative stress) was measured using as control viable cells of 4 separated experiments treated with Antimycin A (AntA) and stained with dihydroethidine (DHE) (“AntA+DHE”). Results are given as % control (unstained cells) to account for minor differences in DHE concentrations and laser fluctuations.
Accordingly, the next series of experiments employed flow cytometry to assess antioxidant effectiveness of PEG-HCCs and targeted PEG-HCCs in cultured brain endothelial cells (b.End3 cells). For these experiments, bEnd.3 cells were cultured to 50-80% confluence in 6 well plates in 2 mL of culture media. The cells were treated with 10 μL of 2 mM Antimycin A (AntA, shown to induce intracellular superoxide radical production). Five minutes later, 1×PBS, PEG-HCC, psPEG-HCC or super oxide dismutase (SOD) was added. The cells were then incubated at 37° C. for 5 minutes. At that time, either 2 μL of 10 mM DHE or a 50% DMSO solution in 1×PBS (control) was added to the wells. The cells were then incubated for another 30 minutes. Next, the cells were placed on ice, trypsinized, and washed twice. The cells were then, counted and stained with SytoxRed (viability stain). 10,000 cells were analyzed per treatment group using the TXRED channel (DHE) and SytoxRed to assess cell viability.

Turning to `CC(=O)O[C@H]1C(=O)[C@@]2(C)[C@H]([C@H](OC(=O)c3ccccc3)[C@]3(O)C[C@H](OC(=O)[C@H](O)[C@@H](NC(=O)c4ccccc4)c4ccccc4)C(C)=C1C3(C)C)[C@]1(OC(C)=O)CO[C@@H]1C[C@@H]2O` [PTX, Paclitaxel], in data set [1], the solubility in water result was “insoluble in water”.
For `Cc1c(C)c2c(c(C)c1O)CCC(C)(C(=O)O)O2` (centres unmarked) [Trolox], the “level of oxidative stress (DHE mean fluorescence intensity)” value in the data set with bEnd.3 cells is listed as “not effective”.
